Assay results from patent US9815832B2 (priority 2013, dated 2017).
Where a name gives a salt, the structure may show the parent alone.

Biological target: human recombinant PDE4B (Homo sapiens (Human), UniProt Q07343, S133E/S654A/S659A/S661A)
Details: read-out: Human PDE4B FL
Procedure: Reactions are incubated for 30 min at 25° C. The addition of 20 μL of 8 mg/mL yitrium silicate SPA beads (PerkinElmer) stops the reaction. The plates are sealed (TopSeal, PerkinElmer) and the beads are allowed to settle for 8 hrs, after which they are read on the Trilux Microbeta overnight.

Sequence of human recombinant PDE4B (Q07343 122-736 S133E/S654A/S659A/S661A): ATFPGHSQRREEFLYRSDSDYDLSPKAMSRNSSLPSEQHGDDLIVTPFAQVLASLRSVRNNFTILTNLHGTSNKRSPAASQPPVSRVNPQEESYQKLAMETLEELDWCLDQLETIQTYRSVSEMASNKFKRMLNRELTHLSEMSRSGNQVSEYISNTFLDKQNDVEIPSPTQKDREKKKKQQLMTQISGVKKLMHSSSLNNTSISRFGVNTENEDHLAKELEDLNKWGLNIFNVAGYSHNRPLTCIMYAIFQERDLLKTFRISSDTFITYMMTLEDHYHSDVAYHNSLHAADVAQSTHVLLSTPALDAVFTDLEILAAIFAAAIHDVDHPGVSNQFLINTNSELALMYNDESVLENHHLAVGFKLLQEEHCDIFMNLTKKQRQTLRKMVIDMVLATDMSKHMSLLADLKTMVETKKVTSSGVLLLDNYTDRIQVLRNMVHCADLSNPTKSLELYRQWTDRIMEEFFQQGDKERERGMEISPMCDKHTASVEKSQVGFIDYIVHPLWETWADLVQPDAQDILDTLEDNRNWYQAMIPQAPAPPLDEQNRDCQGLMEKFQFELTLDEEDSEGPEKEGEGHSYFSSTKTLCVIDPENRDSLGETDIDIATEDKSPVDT

Cn1ncc2ccc(-n3c(C(=O)NC4CC4)nc4cccnc43)cc21 [Example 86, N-Cyclopropyl-3-(1-methyl-1H-indazol-6-yl)-3H-imidazo[4,5-b]pyridine-2-carboxamide]
IC50: 24500 nM

N#Cc1ccc(-n2c(C(=O)NC3CC3)nc3cccnc32)cn1 [Example 39, 3-(6-Cyanopyridin-3-yl)-N-cyclopropyl-3H-imidazo[4,5-b]pyridine-2-carboxamide]
IC50: 363 nM

O=C(NC1CC1)c1nc2cccnc2n1-c1ccc2ncccc2c1 [Example 80, N-Cyclopropyl-3-(quinolin-6-yl)-3H-imidazo[4,5-b]pyridine-2-carboxamide, trifluoroacetate salt]
IC50: 1470 nM

Cc1ccc(-n2c(C(=O)NC3CC3)nc3cccnc32)cn1 [Example 85, N-Cyclopropyl-3-(6-methylpyridin-3-yl)-3H-imidazo[4,5-b]pyridine-2-carboxamide]
IC50: 7730 nM

O=C(c1nc2cccnc2n1-c1ccc(Cl)c(F)c1)N1CC(F)C1 [Example 21, [3-(4-Chloro-3-fluorophenyl)-3H-imidazo[4,5-b]pyridin-2-yl](3-fluoroazetidin-1-yl)methanone]
IC50: 42.6 nM

Cc1cc(C)cc(-n2c(C(=O)NC3CC3)nc3cccnc32)c1 [Example 76, N-Cyclopropyl-3-(3,5-dimethylphenyl)-3H-imidazo[4,5-b]pyridine-2-carboxamide]
IC50: 374 nM

O=C(c1nc2cccnc2n1-c1ccc(Cl)cc1F)N1CCC1 [Example 22, Azetidin-1-yl[3-(4-chloro-2-fluorophenyl)-3H-imidazo[4,5-b]pyridin-2-yl]methanone]
IC50: 273 nM

O=C(NC1CC1)c1nc2cccnc2n1-c1cc(F)c(F)c(F)c1 [Example 30, N-Cyclopropyl-3-(3,4,5-trifluorophenyl)-3H-imidazo[4,5-b]pyridine-2-carboxamide, trifluoroacetate salt]
IC50: 5.77 nM

Cc1ccc(-n2c(C(=O)NC3CC3)nc3cccnc32)c(C)c1 [Example 59, N-Cyclopropyl-3-(2,4-dimethylphenyl)-3H-imidazo[4,5-b]pyridine-2-carboxamide]
IC50: 1020 nM

O=C(c1nc2cccnc2n1-c1ccc(Cl)cc1)N1CCC1 [Example 16, Azetidin-1-yl[3-(4-chlorophenyl)-3H-imidazo[4,5-b]pyridin-2-yl]methanone]
IC50: 196 nM

O=C(NC1CC1)c1nc2cccnc2n1-c1ccnc(C(F)(F)F)c1 [Example 82, N-Cyclopropyl-3-[2-(trifluoromethyl)pyridin-4-yl]-3H-imidazo[4,5-b]pyridine-2-carboxamide]
IC50: 6070 nM

Cn1ccc(NC(=O)c2nc3cccnc3n2-c2ccc(Cl)cc2)n1 [Example 24, 3-(4-Chlorophenyl)-N-(1-methyl-1H-pyrazol-3-yl)-3H-imidazo[4,5-b]pyridine-2-carboxamide]
IC50: 211 nM

N#Cc1c(F)cc(-n2c(C(=O)NC3CC3)nc3cccnc32)cc1F [Example 20, 3-(4-Cyano-3,5-difluorophenyl)-N-cyclopropyl-3H-imidazo[4,5-b]pyridine-2-carboxamide]
IC50: 13.8 nM

O=C(NC1CC1)c1nc2cccnc2n1-c1cncc(Cl)c1 [Example 37, 3-(5-Chloropyridin-3-yl)-N-cyclopropyl-3H-imidazo[4,5-b]pyridine-2-carboxamide]
IC50: 409 nM

CN(C)C(=O)c1nc2cccnc2n1-c1ccc(Cl)c(F)c1 [Example 11, 3-(4-Chloro-3-fluorophenyl)-N,N-dimethyl-3H-imidazo[4,5-b]pyridine-2-carboxamide]
IC50: 405 nM

CCNC(=O)c1nc2cccnc2n1-c1cncc(Cl)c1 [Example 81, 3-(5-Chloropyridin-3-yl)-N-ethyl-3H-imidazo[4,5-b]pyridine-2-carboxamide]
IC50: 8270 nM

O=C(NC1CC1)c1nc2cccnc2n1C1CCOCC1 [Example 15, N-Cyclopropyl-3-(tetrahydro-2H-pyran-4-yl)-3H-imidazo[4,5-b]pyridine-2-carboxamide]
IC50: 1730 nM

O=C(NC1CC1)c1nc2cccnc2n1C1Cc2ccccc2C1 [Example 47, N-Cyclopropyl-3-(2,3-dihydro-1H-inden-2-yl)-3H-imidazo[4,5-b]pyridine-2-carboxamide]
IC50: 1260 nM

COc1cc(-n2c(C(=O)NC3CC3)nc3cccnc32)ccc1F [Example 55, N-Cyclopropyl-3-(4-fluoro-3-methoxyphenyl)-3H-imidazo[4,5-b]pyridine-2-carboxamide]
IC50: 304 nM

O=C(c1nc2cccnc2n1-c1ccc(Cl)cc1F)N1CC(F)C1 [Example 25, [3-(4-Chloro-2-fluorophenyl)-3H-imidazo[4,5-b]pyridin-2-yl](3-fluoroazetidin-1-yl)methanone]
IC50: 910 nM

Cc1ccc(Cl)c(-n2c(C(=O)NC3CC3)nc3cccnc32)c1 [Example 91, 3-(2-Chloro-5-methylphenyl)-N-cyclopropyl-3H-imidazo[4,5-b]pyridine-2-carboxamide]
IC50: 9420 nM

O=C(NC1CC1)c1nc2cccnc2n1-c1ccc(F)cc1F [Example 43, N-Cyclopropyl-3-(2,4-difluorophenyl)-3H-imidazo[4,5-b]pyridine-2-carboxamide]
IC50: 927 nM

N#Cc1cccc(-n2c(C(=O)NC3CC3)nc3cccnc32)c1 [Example 53, 3-(3-Cyanophenyl)-N-cyclopropyl-3H-imidazo[4,5-b]pyridine-2-carboxamide]
IC50: 287 nM

NC(=O)c1nc2cccnc2n1-c1ccc(Cl)c(F)c1 [Example 17, 3-(4-Chloro-3-fluorophenyl)-3H-imidazo[4,5-b]pyridine-2-carboxamide]
IC50: 8510 nM

Cc1ccc(-n2c(C(=O)NC3CC3)nc3cccnc32)c(Cl)c1 [Example 88, 3-(2-Chloro-4-methylphenyl)-N-cyclopropyl-3H-imidazo[4,5-b]pyridine-2-carboxamide]
IC50: 3700 nM

COc1cncc(-n2c(C(=O)NC3CC3)nc3cccnc32)c1 [Example 83, N-Cyclopropyl-3-(5-methoxypyridin-3-yl)-3H-imidazo[4,5-b]pyridine-2-carboxamide]
IC50: 13600 nM

O=C(NC1CC1)c1nc2cccnc2n1-c1ccc(C(F)(F)F)cc1 [Example 92, N-Cyclopropyl-3-[4-(trifluoromethyl)phenyl]-3H-imidazo[4,5-b]pyridine-2-carboxamide]
IC50: 3110 nM

Cn1ccc(NC(=O)c2nc3cccnc3n2C2CCCC2)n1 [Example 14, 3-Cyclopentyl-N-(1-methyl-1H-pyrazol-3-yl)-3H-imidazo[4,5-b]pyridine-2-carboxamide]
IC50: 822 nM

O=C(c1nc2cccnc2n1-c1cc(F)c(Cl)cc1F)N1CCC1 [Example 12, Azetidin-1-yl[3-(4-chloro-2,5-difluorophenyl)-3H-imidazo[4,5-b]pyridin-2-yl]methanone, trifluoroacetate salt]
IC50: 99.4 nM

Cc1cc(Cl)ccc1-n1c(C(=O)N2CCC2)nc2cccnc21 [Example 34, Azetidin-1-yl[3-(4-chloro-2-methylphenyl)-3H-imidazo[4,5-b]pyridin-2-yl]methanone]
IC50: 399 nM

Cc1cc(Cl)ccc1-n1c(C(=O)N2CC(F)C2)nc2cccnc21 [Example 35, [3-(4-Chloro-2-methylphenyl)-3H-imidazo[4,5-b]pyridin-2-yl](3-fluoroazetidin-1-yl)methanone]
IC50: 1130 nM

Cc1ccc(-n2c(C(=O)NC3CC3)nc3cccnc32)cc1 [Example 29, N-Cyclopropyl-3-(4-methylphenyl)-3H-imidazo[4,5-b]pyridine-2-carboxamide]
IC50: 225 nM

Cc1cc(-n2c(C(=O)NC3CC3)nc3cccnc32)c(Cl)cc1F [Example 84, 3-(2-Chloro-4-fluoro-5-methylphenyl)-N-cyclopropyl-3H-imidazo[4,5-b]pyridine-2-carboxamide]
IC50: 16600 nM

Cc1cccc(-n2c(C(=O)NC3CC3)nc3cccnc32)c1 [Example 70, N-Cyclopropyl-3-(3-methylphenyl)-3H-imidazo[4,5-b]pyridine-2-carboxamide]
IC50: 421 nM

O=C(NC1CC1)c1nc2cccnc2n1-c1ccc2c(c1)COC2 [Example 61, N-Cyclopropyl-3-(1,3-dihydro-2-benzofuran-5-yl)-3H-imidazo[4,5-b]pyridine-2-carboxamide]
IC50: 1580 nM

O=C(NC1CC1)c1nc2cccnc2n1-c1ccc(Cl)cc1F [Example 23, 3-(4-Chloro-2-fluorophenyl)-N-cyclopropyl-3H-imidazo[4,5-b]pyridine-2-carboxamide]
IC50: 632 nM

CCCNC(=O)c1nc2cccnc2n1-c1ccc(Cl)c(F)c1 [Example 6, 3-(4-Chloro-3-fluorophenyl)-N-propyl-3H-imidazo[4,5-b]pyridine-2-carboxamide]
IC50: 38.1 nM

O=C(NC1CC1)c1nc2cccnc2n1-c1cc(Cl)cc(Cl)c1 [Example 63, N-Cyclopropyl-3-(3,5-dichlorophenyl)-3H-imidazo[4,5-b]pyridine-2-carboxamide]
IC50: 68 nM

O=C(NC1CC1)c1nc2cccnc2n1-c1ccc(F)c(F)c1 [Example 62, N-Cyclopropyl-3-(3,4-difluorophenyl)-3H-imidazo[4,5-b]pyridine-2-carboxamide]
IC50: 34.9 nM

Cc1cc(Cl)ccc1-n1c(C(=O)NC2CC2)nc2cccnc21 [Example 26, 3-(4-Chloro-2-methylphenyl)-N-cyclopropyl-3H-imidazo[4,5-b]pyridine-2-carboxamide]
IC50: 319 nM

Cc1ccc(F)cc1-n1c(C(=O)NC2CC2)nc2cccnc21 [Example 44, N-Cyclopropyl-3-(5-fluoro-2-methylphenyl)-3H-imidazo[4,5-b]pyridine-2-carboxamide]
IC50: 1660 nM
